# Measurements: US20250381179A1, “CHROMAN-BASED COMPOUNDS FOR TREATING CANCER” (priority 2024, published 2025)
# Entries after “also recorded” stand apart in the source; their conditions may differ.
# Assay: Phase 1 study: safety and tolerability (TEAEs, NCI CTCAE v5.0)
# Procedure: The study employed an open-label, 3+3 design, with the option of adding backfill patients to each cohort cleared and deemed safe. […] Tumor responses were assessed every 2 cycles using RECIST v1.1 criteria. […] The study also involves an ongoing dose escalation study where participants receive 100 mg, 200 mg, 300 mg, 400 mg, and 600 mg once daily (QD) dose levels.
# Safety was assessed through the analysis of the reported incidence of treatment-emergent AEs. Treatment-emergent AEs are those with an onset on or after the initiation of therapy and will be graded according to NCI CTCAE Version 5.0. Other safety endpoints, including laboratory results, vital signs, and ECG findings, were summarized for all patients in the Safety set.
# [1] = Cohort 2/200 mg QD, patient 4, first listed event
# [2] = Cohort 2/200 mg QD, patient 4, second listed event
# [3] = Cohort 3/300 mg QD, patient 1, first listed event
# [4] = Cohort 3/300 mg QD, patient 1, second listed event
smiles,measurement,setting,value
"O=C1CC[C@H](N2Cc3cc(N4CCN(CC5CCN(c6ccc([C@@H]7c8ccc(O)cc8OC[C@@H]7c7ccccc7)cc6F)CC5)CC4)ccc3C2=O)C(=O)N1 [compound (1-g), (S)-3-(5-(4-((1-(2-fluoro-4-((3S,4R)-7-hydroxy-3-phenylchroman-4-yl)phenyl)piperidin-4-yl)methyl)piperazin-1-yl)-1-oxoisoindolin-2-yl)piperidine-2,6-dione]",Duration of TEAE leading to dose interruption: Pain in extremity,[1],56 days
same,"Related to Compound (1-g), TEAE leading to dose interruption: Pain in extremity",[1],No
same,CTCAE Grade of TEAE leading to dose interruption: Pain in extremity,[2],2
same,"Related to Compound (1-g), TEAE leading to dose interruption: Pain in extremity",[2],No
same,participants with TEAEs that led to dose interruption,Cohort 3 (300 mg QD),2 participants
same,CTCAE Grade of TEAE leading to dose interruption: Anaemia,"Cohort 3/300 mg QD, patient 1",3
same,"Related to Compound (1-g), TEAE leading to dose interruption: Anaemia","Cohort 3/300 mg QD, patient 1",No
same,CTCAE Grade of TEAE leading to dose interruption: Acute kidney injury,[3],3
same,Duration of TEAE leading to dose interruption: Acute kidney injury,[3],6 days
same,"Related to Compound (1-g), TEAE leading to dose interruption: Acute kidney injury",[3],No
same,CTCAE Grade of TEAE leading to dose interruption: Acute kidney injury,[4],3
same,Duration of TEAE leading to dose interruption: Acute kidney injury,[4],7 days
same,"Related to Compound (1-g), TEAE leading to dose interruption: Acute kidney injury",[4],No
same,CTCAE Grade of TEAE leading to dose interruption: Muscular weakness,"Cohort 3/300 mg QD, patient 2",2
same,CTCAE Grade of TEAE leading to dose interruption: Upper respiratory tract infection,"Cohort 3/300 mg QD, patient 2",2
same,Duration of TEAE leading to dose interruption: Upper respiratory tract infection,"Cohort 3/300 mg QD, patient 2",8 days
same,"Related to Compound (1-g), TEAE leading to dose interruption: Muscular weakness","Cohort 3/300 mg QD, patient 2",No
same,"Related to Compound (1-g), TEAE leading to dose interruption: Upper respiratory tract infection","Cohort 3/300 mg QD, patient 2",No
same,participants with TEAEs that led to dose interruption,"Cohort 4 and 5 (400, 600 mg QD)",No participant experienced TEAEs that led to dose interruption
same,"Constipation, Related-TEAE All Grades",N = 37,3 n (%)
same,"Constipation, Related-TEAE Grade ≥ 3",N = 37,0 n (%)
same,"Constipation, TEAE All Grades",N = 37,4 (11) n (%)
same,"Constipation, TEAE Grade ≥ 3",N = 37,0 n (%)
same,"Dehydration, Related-TEAE All Grades",N = 37,0 n (%)
same,"Dehydration, Related-TEAE Grade ≥ 3",N = 37,0 n (%)
same,"Dehydration, TEAE All Grades",N = 37,5 (14) n (%)
same,"Dehydration, TEAE Grade ≥ 3",N = 37,2 (5) n (%)
same,"Fatigue, Related-TEAE All Grades",N = 37,2 n (%)
same,"Fatigue, Related-TEAE Grade ≥ 3",N = 37,0 n (%)
same,"Fatigue, TEAE All Grades",N = 37,6 (16) n (%)
same,"Fatigue, TEAE Grade ≥ 3",N = 37,1 (3) n (%)
same,Grade 5 event of seizure,N = 37,1 event
same,"Hot flush, Related-TEAE All Grades",N = 37,5 n (%)
same,"Hot flush, Related-TEAE Grade ≥ 3",N = 37,0 n (%)
same,"Hot flush, TEAE All Grades",N = 37,5 (14) n (%)
same,"Hot flush, TEAE Grade ≥ 3",N = 37,0 n (%)
same,"Nausea, Related-TEAE All Grades",N = 37,5 n (%)
same,"Nausea, Related-TEAE Grade ≥ 3",N = 37,0 n (%)
same,"Nausea, TEAE All Grades",N = 37,7 (19) n (%)
same,"Nausea, TEAE Grade ≥ 3",N = 37,0 n (%)
same,"Neutrophil count decreased, Related-TEAE All Grades",N = 37,4 n (%)
same,"Neutrophil count decreased, Related-TEAE Grade ≥ 3",N = 37,0 n (%)
same,"Neutrophil count decreased, TEAE All Grades",N = 37,6 (16) n (%)
same,"Neutrophil count decreased, TEAE Grade ≥ 3",N = 37,1 (3) n (%)
same,"TEAE constipation, participants",N = 37,10.8%
same,"TEAE dehydration, participants",N = 37,13.5%
same,"TEAE fatigue, participants",N = 37,16.2%
same,"TEAE hot flush, participants",N = 37,13.5%
same,"TEAE nausea, participants",N = 37,18.9%
same,"TEAE neutrophil count decreased, participants",N = 37,16.2%
same,compound-related SAEs,N = 37,No compound (1-g)-related SAEs were observed
same,"deaths reported, all assessed as unrelated to compound (1-g)",N = 37,3 deaths
same,dose reductions or treatment discontinuations due to TEAEs,N = 37,no dose reductions or treatment discontinuations due to TEAEs
same,grade of treatment-related AEs,N = 37,All treatment-related AEs were Grade 1 or 2
same,participants with at least a TEAE,N = 37,78%
same,patients experiencing SAEs (nine SAEs),N = 37,8 patients
same,"related TEAE hot flush, participants",N = 37,13.5%
same,"related TEAE nausea, participants",N = 37,13.5%
same,"related TEAE neutrophil count decrease, participants",N = 37,10.8%
same,relatedness of TEAEs that led to dose interruption,N = 37,None of these were considered related to compound (1-g)
same,participants with compound (1-g) related TEAEs,"N = 37, fifteen participants",40.5%
same,participants with Grade 23 TEAEs,"N = 37, ten participants",27.0%
same,Patients with Any Compound (1-g) related TEAE,Overall (N = 37),15 (40.5) n (%)
same,Patients with Any TEAE,Overall (N = 37),29 (78.4) n (%)
same,TEAE: Abdominal Distension,Overall (N = 37),1 (2.7) n (%)
same,TEAE: Abdominal Pain,Overall (N = 37),2 (5.4) n (%)
same,TEAE: Acute Kidney Injury,Overall (N = 37),1 (2.7) n (%)
same,TEAE: Adrenal Insufficiency,Overall (N = 37),1 (2.7) n (%)
same,TEAE: Alopecia,Overall (N = 37),1 (2.7) n (%)
same,TEAE: Anaemia,Overall (N = 37),2 (5.4) n (%)
same,TEAE: Anxiety,Overall (N = 37),1 (2.7) n (%)
same,TEAE: Arthralgia,Overall (N = 37),2 (5.4) n (%)
same,TEAE: Axillary Vein Thrombosis,Overall (N = 37),1 (2.7) n (%)
same,TEAE: Back Pain,Overall (N = 37),3 (8.1) n (%)
same,TEAE: Basal Cell Carcinoma,Overall (N = 37),1 (2.7) n (%)
same,TEAE: Breast Pain,Overall (N = 37),1 (2.7) n (%)
same,TEAE: Confusional State,Overall (N = 37),1 (2.7) n (%)
same,TEAE: Constipation,Overall (N = 37),4 (10.8) n (%)
same,TEAE: Cough,Overall (N = 37),1 (2.7) n (%)
same,TEAE: Covid-19 Pneumonia,Overall (N = 37),1 (2.7) n (%)
same,TEAE: Dehydration,Overall (N = 37),5 (13.5) n (%)
same,TEAE: Diarrhoea,Overall (N = 37),3 (8.1) n (%)
same,TEAE: Dizziness,Overall (N = 37),1 (2.7) n (%)
same,TEAE: Dysgeusia,Overall (N = 37),1 (2.7) n (%)
same,TEAE: Dyspepsia,Overall (N = 37),1 (2.7) n (%)
same,TEAE: Dyspnoea,Overall (N = 37),3 (8.1) n (%)
same,TEAE: Dysuria,Overall (N = 37),2 (5.4) n (%)
same,TEAE: Eructation,Overall (N = 37),1 (2.7) n (%)
same,TEAE: Fall,Overall (N = 37),2 (5.4) n (%)
same,TEAE: Fatigue,Overall (N = 37),6 (16.2) n (%)
same,TEAE: Flatulence,Overall (N = 37),2 (5.4) n (%)
same,TEAE: Fracture,Overall (N = 37),1 (2.7) n (%)
same,TEAE: Fungal Infection,Overall (N = 37),1 (2.7) n (%)
same,TEAE: Haematoma,Overall (N = 37),1 (2.7) n (%)
same,TEAE: Hot Flush,Overall (N = 37),5 (13.5) n (%)
same,TEAE: Hyperglycaemia,Overall (N = 37),1 (2.7) n (%)
same,TEAE: Hyperhidrosis,Overall (N = 37),3 (8.1) n (%)
same,TEAE: Hypokalaemia,Overall (N = 37),2 (5.4) n (%)
same,TEAE: Hypotension,Overall (N = 37),1 (2.7) n (%)
same,TEAE: Influenza Like Illness,Overall (N = 37),1 (2.7) n (%)
same,TEAE: Insomnia,Overall (N = 37),3 (8.1) n (%)
same,TEAE: Lower Respiratory Tract Congestion,Overall (N = 37),1 (2.7) n (%)
same,TEAE: Lymphocyte Count Decreased,Overall (N = 37),1 (2.7) n (%)
same,TEAE: Muscle Spasm,Overall (N = 37),1 (2.7) n (%)
same,TEAE: Muscular Weakness,Overall (N = 37),2 (5.4) n (%)
same,TEAE: Musculoskeletal Stiffness,Overall (N = 37),1 (2.7) n (%)
same,TEAE: Nail Disorder,Overall (N = 37),1 (2.7) n (%)
same,TEAE: Nasal Congestion,Overall (N = 37),1 (2.7) n (%)
same,TEAE: Nausea,Overall (N = 37),7 (18.9) n (%)
same,TEAE: Neutrophil Count Decreased,Overall (N = 37),6 (16.2) n (%)
same,TEAE: Oedema Peripheral,Overall (N = 37),2 (5.4) n (%)
same,TEAE: Ophthalmic Migraine,Overall (N = 37),1 (2.7) n (%)
same,TEAE: Oral Pain,Overall (N = 37),1 (2.7) n (%)
same,TEAE: Pain In Extremity,Overall (N = 37),1 (2.7) n (%)
same,TEAE: Pharyngitis,Overall (N = 37),1 (2.7) n (%)
same,TEAE: Platelet Count Decreased,Overall (N = 37),2 (5.4) n (%)
same,TEAE: Pleural Effusion,Overall (N = 37),1 (2.7) n (%)
same,TEAE: Pneumonia,Overall (N = 37),2 (5.4) n (%)
same,TEAE: Productive Cough,Overall (N = 37),1 (2.7) n (%)
same,TEAE: Rash Maculo-Papular,Overall (N = 37),2 (5.4) n (%)
same,TEAE: Rhinitis Allergic,Overall (N = 37),1 (2.7) n (%)
same,TEAE: Rib Fracture,Overall (N = 37),1 (2.7) n (%)
same,TEAE: Seizure,Overall (N = 37),1 (2.7) n (%)
same,TEAE: Sepsis,Overall (N = 37),1 (2.7) n (%)
same,TEAE: Tremor,Overall (N = 37),2 (5.4) n (%)
same,TEAE: Upper Respiratory Tract Infection,Overall (N = 37),3 (8.1) n (%)
same,TEAE: Urinary Tract Infection,Overall (N = 37),2 (5.4) n (%)
same,TEAE: Vaginal Haemorrhage,Overall (N = 37),1 (2.7) n (%)
same,TEAE: Vomiting,Overall (N = 37),2 (5.4) n (%)
same,related TEAE: Alopecia,Overall (N = 37),1 (2.7) n (%)
same,related TEAE: Arthralgia,Overall (N = 37),1 (2.7) n (%)
same,related TEAE: Constipation,Overall (N = 37),3 (8.1) n (%)
same,related TEAE: Diarrhea,Overall (N = 37),3 (8.1) n (%)
same,related TEAE: Dysgeusia,Overall (N = 37),1 (2.7) n (%)
same,related TEAE: Eructation,Overall (N = 37),1 (2.7) n (%)
same,related TEAE: Fatigue,Overall (N = 37),2 (5.4) n (%)
same,related TEAE: Flatulence,Overall (N = 37),1 (2.7) n (%)
same,related TEAE: Hyperhidrosis,Overall (N = 37),1 (2.7) n (%)
same,related TEAE: Nail Disorder,Overall (N = 37),1 (2.7) n (%)
same,related TEAE: Platelet Count Decreased,Overall (N = 37),1 (2.7) n (%)
same,related TEAE: Tremor,Overall (N = 37),1 (2.7) n (%)
same,related TEAE: Vomiting,Overall (N = 37),1 (2.7) n (%)
same,Compound (1-g) related TEAEs of CTCAE grade >=3,"all cohorts, N = 37",no Grade≥3 TEAEs were considered as related to compound (1-g); also recorded: No data meets output criteria
same,participants with TEAEs that led to dose interruption,"all cohorts, N = 37",Nine
same,dose-related trend in incidence of related TEAEs,between 100 mg and 600 mg,No dose-related trends were evident
same,related TEAE: Hot Flush,"human, in vivo",5 (13.5) n (%)
same,related TEAE: Nausea,"human, in vivo",5 (13.5) n (%)
same,related TEAE: Neutrophil Count Decreased,"human, in vivo",4 (10.8) n (%)
